Data as given in patent publication US10160762B2, “6-alkyl dihydropyrazolopyrimidinone compounds as PDE2 inhibitors” (Merck Sharp & Dohme Corp., priority 2015, dated 2018).
Where two headings read alike, the source gives them in different places.

Molecular target: T1, Rhesus PDE2A3 (Macaca mulatta, UniProt B3VTJ2)
T1 construct: made in house; host or cells: AD293 cells, transient transfection; supernatant of sonicated lysate
T1 sequence (B3VTJ2 1-941): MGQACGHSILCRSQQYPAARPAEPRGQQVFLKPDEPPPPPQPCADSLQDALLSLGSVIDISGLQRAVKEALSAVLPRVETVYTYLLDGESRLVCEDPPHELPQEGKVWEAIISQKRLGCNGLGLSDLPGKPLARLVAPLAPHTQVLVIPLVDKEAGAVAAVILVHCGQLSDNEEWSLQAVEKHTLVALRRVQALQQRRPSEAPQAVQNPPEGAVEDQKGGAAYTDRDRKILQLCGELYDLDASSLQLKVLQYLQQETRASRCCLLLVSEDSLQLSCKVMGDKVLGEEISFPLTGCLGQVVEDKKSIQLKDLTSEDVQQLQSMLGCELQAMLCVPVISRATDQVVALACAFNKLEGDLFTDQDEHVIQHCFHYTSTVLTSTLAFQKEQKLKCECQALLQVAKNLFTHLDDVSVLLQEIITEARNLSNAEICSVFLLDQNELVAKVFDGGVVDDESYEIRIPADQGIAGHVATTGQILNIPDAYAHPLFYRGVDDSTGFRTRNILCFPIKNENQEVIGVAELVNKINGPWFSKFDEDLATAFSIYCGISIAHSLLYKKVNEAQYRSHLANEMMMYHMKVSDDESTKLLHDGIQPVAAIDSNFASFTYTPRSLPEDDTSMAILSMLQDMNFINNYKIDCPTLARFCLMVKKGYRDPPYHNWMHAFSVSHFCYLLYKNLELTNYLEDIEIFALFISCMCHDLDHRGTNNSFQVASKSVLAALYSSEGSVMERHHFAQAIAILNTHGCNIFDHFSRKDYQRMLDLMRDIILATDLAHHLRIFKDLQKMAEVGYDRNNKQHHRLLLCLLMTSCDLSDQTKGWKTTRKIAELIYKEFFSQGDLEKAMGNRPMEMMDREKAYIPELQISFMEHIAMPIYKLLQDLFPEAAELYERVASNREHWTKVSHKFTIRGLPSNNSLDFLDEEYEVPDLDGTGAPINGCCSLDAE
Experiment: PDE2 fluorescence polarization (IMAP FP) inhibition assay, rhesus PDE2A3
Type: biochemical, rhesus macaque
Procedure: The activity of the compounds in accordance with the present invention as PDE2 inhibitors may be readily determined using a fluorescence polarization (FP) methodology (Huang, W., et al., J. Biomol Screen, 2002, 7: 215).
The PDE2 inhibitory activity of the compounds of the present invention was determined in accordance with the following experimental method. Rhesus PDE2A3 was amplified from rhesus macaque brain cDNA (Biochain Institute, Hayward, Calif.) using primers based on human PDE2A sequence (accession NM_002599.3) where the forward primer containing a Kozak consensus was 5′-[…]-3′ and the reverse primer was 5′-[…]-3′. Amplification with Easy-A High-Fidelity PCR cloning enzyme (Stratagene, La Jolla, Calif.) was 95° C. for 2 minutes followed by thirty three cycles of 95° C. for 40 seconds, 52° C. for 30 seconds, and 72° C. for 2 minutes 48 seconds. Final extension was 72° C. for 7 minutes. The PCR product was TA cloned into pcDNA3.3-TOPO (Invitrogen, Carlsbad, Calif.) according to standard protocol. A consensus sequence was developed from multiple clones and then deposited into GenBank (EU812167). AD293 cells (Stratagene, La Jolla, Calif.) with 70-80% confluency were transiently transfected with rhesus PDE2A3/pcDNA3.3-TOPO using Lipofectamine 2000 according to manufacturer specifications (Invitrogen, Carlsbad, Calif.). Cells were harvested 48 hours post-transfection and lysed by sonication (setting 3, 10×5 sec pulses) in a buffer containing 20 mM HEPES pH 7.4, 1 mM EDTA and Complete Protease Inhibitor Cocktail Tablets (Roche, Indianapolis, Ind.). Lysate was collected by centrifugation at 75,000×g for 20 minutes at 4° C. and supernatant utilized for evaluation of PDE2 activity. The fluorescence polarization assay for cyclic nucleotide phosphodiesterases was performed using an IMAP® FP kit supplied by Molecular Devices, Sunnyvale, Calif. (product #R8139). […] Assays were performed at room temperature in 384-well microtiter plates with an incubation volume of 20.2 μL. Solutions of test compounds were prepared in DMSO and serially diluted with DMSO to yield 8 μL of each of 10 solutions differing by 3-fold in concentration, at 32 serial dilutions per plate. […] 0% of inhibition is determined by using DMSO (1% final concentrations).
A Labcyte Echo 555 (Labcyte, Sunnyvale, Calif.) is used to dispense 200 nL from each well of the titration plate to the 384 well assay plate. Ten microliters of a solution of enzyme (1/2000 final dilution from aliquots; sufficient to produce 20% substrate conversion) was added to the assay plate. Next 10 uL of a separate solution of the substrate FAM-labeled cAMP (50 nM final concentration product # R7506 from Molecular Devices) and the activator cGMP (1 uM final concentration), prepared in the assay buffer (10 mM Tris HCl, pH 7.2, 10 mM MgCl2, 0.05% NaN3 0.01% Tween-20, and 1 mM DTT) was added to the assay plate and shaken to mix. The reaction is allowed to proceed at room temperature for 60 minutes. A binding solution is then made from the kit components, comprised of 80% Solution A, 20% Solution B and binding reagent at a volume of 1/600 the total binding solution. The enzymatic reaction is stopped by addition of 60 μL of the binding solution to each well of the assay plates and the plates are sealed and shaken for 30 seconds. The plate was incubated at room temperature for at least one hour prior to determining the fluorescence polarization (FP). The parallel and perpendicular fluorescence of each well of the plate was measured using a Tecan Genios Pro plate reader (Tecan, Switzerland) or Perkin Elmer EnVision™ plate reader (Waltham, Mass.). Fluorescence polarization (mP) was calculated from the parallel (S) and perpendicular (P) fluorescence of each sample well and the analogous values for the median control well, containing only substrate (So and Po), using the following equation: Polarization(mP)=1000*(S/So−P/Po)/(S/So+P/Po).

[1] = Lab A, read-out: Rhesus PDE2 Ki (nM) Lab A
[2] = Lab B, read-out: Rhesus PDE2 Ki (nM) Lab B

Compound	Ki [1]	Ki [2]
Cc1nc2c(c(CO)nn2C(C)c2ccc(OC(F)(F)F)c(F)c2)c(=O)[nH]1 (single isomer, unassigned) [Example 10, (R)- or (S)-1-(1-(3-Fluoro-4-(trifluoromethoxy)phenyl)ethyl)-3-(hydroxymethyl)-6-methyl-1H-pyrazolo[3,4-d]pyrimidin-4(5H)-one]	39 nM	103 nM
Cc1nc2c(c(CO)nn2C(C)c2ccc(C(F)(F)F)c(F)c2)c(=O)[nH]1 (single isomer, unassigned) [Example 12, (R)- or (S)-1-(1-(3-Fluoro-4-(trifluoromethyl)phenyl)ethyl)-3-(hydroxymethyl)-6-methyl-1H-pyrazolo[3,4-d]pyrimidin-4(5H)-one]	278 nM	514 nM
Cc1nc2c(c(CO)nn2C(C)c2ccc(C(F)(F)F)c(F)c2)c(=O)[nH]1 (single isomer, unassigned) [Example 13, (S)- or (R)-1-(1-(3-Fluoro-4-(trifluoromethyl)phenyl)ethyl)-3-(hydroxymethyl)-6-methyl-1H-pyrazolo[3,4-d]pyrimidin-4(5H)-one]	1.3 nM	3 nM
Cc1nc2c(c(CO)nn2C(C)c2ccc(C(F)(F)F)cc2)c(=O)[nH]1 (single isomer, unassigned) [Example 26, (R)- or (S)-3-(Hydroxymethyl)-6-methyl-1-{1-[4-(trifluoromethyl)phenyl]ethyl}-1,5-dihydro-4H-pyrazolo[3,4-d]pyrimidin-4-one]	216 nM	456 nM
Cc1nc2c(c(C)nn2C(C)c2ccc(C(F)(F)F)cc2)c(=O)[nH]1 (single isomer, unassigned) [Example 36]	443 nM	–
Cc1nc2c(c(C)nn2C(C)c2ccc(C(F)(F)F)cc2)c(=O)[nH]1 (single isomer, unassigned) [Example 37]	23 nM	–
Cc1nc2c(c(CO)nn2C(c2ccc(OC(F)(F)F)cc2)C2CC2)c(=O)[nH]1 (single isomer, unassigned) [Example 94, (R)- or (S)-1-(Cyclopropyl(4-(trifluoromethoxy)phenyl)methyl)-3-(hydroxymethyl)-6-methyl-1H-pyrazolo[3,4-d]pyrimidin-4(5H)-one]	–	18 nM
Cc1nc2c(c(CO)nn2C(c2ccc(OC(F)(F)F)cc2)C2CC2)c(=O)[nH]1 (single isomer, unassigned) [Example 95, (S)- or (R)-1-(Cyclopropyl(4-(trifluoromethoxy)phenyl)methyl)-3-(hydroxymethyl)-6-methyl-1H-pyrazolo[3,4-d]pyrimidin-4(5H)-one]	–	2.1 nM
Cc1nc2c(c(CO)nn2C(c2ccc(OC(F)(F)F)c(F)c2)C(C)C)c(=O)[nH]1 (single isomer, unassigned) [Example 126, (R)- or (S)-1-(1-(3-Fluoro-4-(trifluoromethoxy)phenyl)-2-methylpropyl)-3-(hydroxyl-methyl)-6-methyl-1H-pyrazolo-[3,4-d]pyrimidin-4(5H)-one]	–	6 nM
Cc1nc2c(c(CO)nn2C(c2ccc(C(F)(F)F)c(F)c2)C(C)(C)C)c(=O)[nH]1 (single isomer, unassigned) [Example 129, (S)- or (R)-1-(1-(3-Fluoro-4-(trifluoromethyl)phenyl)-2,2-dimethylpropyl)-3-(hydroxyl-methyl)-6-methyl-1H-pyrazolo-[3,4-d]pyrimidin-4(5H)-one]	–	6.9 nM
COc1ccc(Cc2nc3c(c(C(F)F)nn3C(C)c3ccc(C(F)(F)F)cc3)c(=O)[nH]2)cc1OC (single isomer, unassigned) [Example 196]	–	28 nM
Cc1nc2c(c(CF)nn2C(C)c2ccc(S(F)(F)(F)(F)F)cc2)c(=O)[nH]1 (single isomer, unassigned) [Example 200]	–	2.4 nM

More lines, now with the values ahead:

Ki [1]	Ki [2]	Compound
0.85 nM	2 nM	Cc1nc2c(c(CO)nn2C(C)c2ccc(OC(F)(F)F)c(F)c2)c(=O)[nH]1 (single isomer, unassigned) [Example 11, (S)- or (R)-1-(1-(3-Fluoro-4-(trifluoromethoxy)phenyl)ethyl)-3-(hydroxymethyl)-6-methyl-1H-pyrazolo[3,4-d]pyrimidin-4(5H)-one]
2 nM	2.1 nM	Cc1nc2c(c(CO)nn2C(C)c2ccc(C(F)(F)F)cc2)c(=O)[nH]1 (single isomer, unassigned) [Example 27, (S)- or (R)-3-(Hydroxymethyl)-6-methyl-1-{1-[4-(trifluoromethyl)phenyl]ethyl]-1,5-dihydro-4H-pyrazolo[3,4-d]pyrimidin-4-one]
–	0.9 nM	Cc1nc2c(c(CO)nn2C(c2ccc(OC(F)(F)F)c(F)c2)C(C)C)c(=O)[nH]1 (single isomer, unassigned) [Example 127, (S)- or (R)-1-(1-(3-Fluoro-4-(trifluoromethoxy)phenyl)-2-methylpropyl)-3-(hydroxymethyl)-6-methyl-1H-pyrazolo[3,4-d]pyrimidin-4(5H)-one]
–	1.5 nM	CCC(c1ccc(C(F)(F)F)cc1)n1nc(CO)c2c(=O)[nH]c(C)nc21 (single isomer, unassigned) [Example 132, (R)- or (S)-3-(Hydroxymethyl)-6-methyl-1-(1-(4-(trifluoro-methyl)phenyl)propyl)-1H-pyrazolo[3,4-d]pyrimidin-4(5H)-one]
–	1.4 nM	Cc1nc2c(c(C(F)F)nn2C(C)c2ccc(C(F)(F)F)cc2)c(=O)[nH]1 (single isomer, unassigned) [Example 176]
–	1.2 nM	Cc1nc2c(c(C(F)F)nn2C(C)c2ccc(OC(F)F)cc2)c(=O)[nH]1 (single isomer, unassigned) [Example 182, (S)- or (R)-1-(1-(4-(Difluoromethoxy)phenyl)ethyl)-3-(difluoromethyl)-6-methyl-1H-pyrazolo[3,4-d]pyrimidin-4(5H)-one]
–	~0.15 nM	COc1ccc(Cc2nc3c(c(C(F)F)nn3C(C)c3ccc(C(F)(F)F)cc3)c(=O)[nH]2)cc1OC (single isomer, unassigned) [Example 197]
